ChEMBL document CHEMBL5046262, “Fragment-Based Discovery of MRTX1719, a Synthetic Lethal Inhibitor of the PRMT5•MTA Complex for the Treatment of MTAP-Deleted Cancers” (J Med Chem, 2022)

Experiments:
[1] = Apparent permeability across apical to basolateral side in dog MDCKII-MDR1 cells at 2 uM incubated for 2.5 hrs by LC-MS/MS analysis; assay type: ADME, cell-based, Canis lupus familiaris, MDCK-MDR1; details: for Papp A→B at 2.5 h, 2 µM: MDCK-MDR1
[2] = Efflux ratio of apparent permeability across basolateral to apical side over apical to basolateral side in dog MDCKII-MDR1 cells at 2 uM incubated for 2.5 hrs by LC-MS/MS analysis; assay type: ADME, cell-based, Canis lupus familiaris, MDCK-MDR1; details: MDCK-MDR1
[3] = molecular target: T1, Protein arginine N-methyltransferase 5 (Homo sapiens, UniProt O14744); test: Binding affinity to MTA-bound human PRMT5 assessed as dissociation constant by SPR assay
T1 sequence (O14744 whole entry): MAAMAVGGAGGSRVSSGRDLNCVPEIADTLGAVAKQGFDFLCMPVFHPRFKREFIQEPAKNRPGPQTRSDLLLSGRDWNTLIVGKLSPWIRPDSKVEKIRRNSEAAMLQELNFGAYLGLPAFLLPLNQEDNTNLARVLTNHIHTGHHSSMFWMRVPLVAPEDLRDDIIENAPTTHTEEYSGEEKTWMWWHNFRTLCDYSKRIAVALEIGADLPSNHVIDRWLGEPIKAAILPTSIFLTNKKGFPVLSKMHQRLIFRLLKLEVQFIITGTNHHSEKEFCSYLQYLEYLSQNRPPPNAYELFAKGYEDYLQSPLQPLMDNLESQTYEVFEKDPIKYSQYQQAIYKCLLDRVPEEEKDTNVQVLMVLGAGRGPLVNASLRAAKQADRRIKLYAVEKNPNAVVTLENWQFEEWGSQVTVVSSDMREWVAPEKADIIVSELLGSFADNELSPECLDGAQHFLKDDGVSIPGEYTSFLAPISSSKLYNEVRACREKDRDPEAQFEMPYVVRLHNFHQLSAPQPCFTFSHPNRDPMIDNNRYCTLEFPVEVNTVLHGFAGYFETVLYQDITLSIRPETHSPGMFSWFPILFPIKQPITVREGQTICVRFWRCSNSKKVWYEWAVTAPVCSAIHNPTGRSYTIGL

[4] = molecular target: T1, Protein arginine N-methyltransferase 5
[5] = molecular target: T1, Protein arginine N-methyltransferase 5; remark: listed apart in the source
[6] = Intrinsic clearance in human hepatocytes; assay type: ADME, cell-based, Hepatocyte; details: read-out: CLH
[7] = Total clearance in CD-1 mouse at 3 mg/kg, iv measured upto 24 hrs by LC-MS/MS analysis; assay type: ADME, organism-based; details: in vivo
[8] = Volume of distribution at steady state in CD-1 mouse at 3 mg/kg, iv measured upto 24 hrs by LC-MS/MS analysis; assay type: ADME, organism-based; details: in vivo, read-out: Vdss
[9] = Half life in CD-1 mouse at 3 mg/kg, iv measured upto 24 hrs by LC-MS/MS analysis; assay type: ADME, organism-based; details: in vivo
[10] = Cmax in CD-1 mouse at 30 mg/kg, po administered via gavage measured upto 24 hrs by LC-MS/MS analysis; assay type: ADME, organism-based; design: route oral, dose 30 mg/kg, time <=24; details: in vivo
[11] = AUCinfinity in CD-1 mouse at 30 mg/kg, po administered via gavage measured upto 24 hrs by LC-MS/MS analysis; assay type: ADME, organism-based; design: route oral, dose 30 mg/kg, time <=24; details: in vivo
[12] = Oral bioavailability in CD-1 mouse at 30 mg/kg administered via gavage measured upto 24 hrs by LC-MS/MS analysis; assay type: ADME, organism-based; details: in vivo
[13] = Total clearance in beagle dog at 2 mg/kg, iv measured upto 24 hrs by LC-MS/MS analysis; assay type: ADME, organism-based, Canis lupus familiaris; details: in vivo
[14] = Volume of distribution at steady state in beagle dog at 2 mg/kg, iv measured upto 24 hrs by LC-MS/MS analysis; assay type: ADME, organism-based, Canis lupus familiaris; details: in vivo, read-out: Vdss
[15] = Half life in beagle dog at 2 mg/kg, iv measured upto 24 hrs by LC-MS/MS analysis; assay type: ADME, organism-based, Canis lupus familiaris; details: in vivo
[16] = Cmax in beagle dog at 10 mg/kg, po administered via gavage measured upto 24 hrs by LC-MS/MS analysis; assay type: ADME, organism-based, Canis lupus familiaris; design: route oral, dose 10 mg/kg, time <=24; details: in vivo
[17] = AUCinfinity in beagle dog at 10 mg/kg, po administered via gavage measured upto 24 hrs by LC-MS/MS analysis; assay type: ADME, organism-based, Canis lupus familiaris; design: route oral, dose 10 mg/kg, time <=24; details: in vivo
[18] = Oral bioavailability in beagle dog at 10 mg/kg administered via gavage measured upto 24 hrs by LC-MS/MS analysis; assay type: ADME, organism-based, Canis lupus familiaris; details: in vivo
[19] = Total clearance in cynomolgus monkey at 2 mg/kg, iv measured upto 24 hrs by LC-MS/MS analysis; assay type: ADME, organism-based, Macaca fascicularis; details: in vivo
[20] = Volume of distribution at steady state in cynomolgus monkey at 2 mg/kg, iv measured upto 24 hrs by LC-MS/MS analysis; assay type: ADME, organism-based, Macaca fascicularis; details: in vivo, read-out: Vdss
[21] = Half life in cynomolgus monkey at 2 mg/kg, iv measured upto 24 hrs by LC-MS/MS analysis; assay type: ADME, organism-based, Macaca fascicularis; details: in vivo
[22] = Oral bioavailability in cynomolgus monkey at 10 mg/kg administered via gavage measured upto 24 hrs by LC-MS/MS analysis; assay type: ADME, organism-based, Macaca fascicularis; details: in vivo
[23] = test system: Lu-99 cell line; test: Antitumor activity against MTAP/CDKN2A deleted human Lu-99 cells xenografted in Hsd athymic nude mouse assessed as tumor growth inhibition at 50 mg/kg, po qd administered via oral gavage for 21 days by caliper method relative to control; assay type: functional; details: Lu-99, po, 504 h, time 21 day, read-out: TGI
[24] = test system: Lu-99 cell line; test: Antitumor activity against MTAP/CDKN2A deleted human Lu-99 cells xenografted in Hsd athymic nude mouse assessed as tumor growth inhibition at 100 mg/kg, po qd administered via oral gavage for 21 days by caliper method relative to control; assay type: functional; details: Lu-99, po, 504 h, time 21 day, read-out: TGI
[25] = test system: Lu-99 cell line; test: Antitumor activity against MTAP/CDKN2A deleted human Lu-99 cells xenografted in Hsd athymic nude mouse assessed as reduction in PRMT5 mediated SDMA level in tumor at 12.5 to 100 mg/kg, po qd administered via oral gavage for 21 days relative to control; assay type: functional; design: scale not given: the % may be the effect or the level left; details: dose 12.5-100 mg/kg, time 21 day
[26] = Toxicity in Hsd athymic nude mouse xenografted with MTAP/CDKN2A deleted human Lu-99 cells assessed as effect on body weight at 12.5 to 100 mg/kg, po qd administered via oral gavage for 21 days; assay type: organism-based, Lu-99 cell line; details: in vivo, 504 h, dose 12.5-100 mg/kg, time 21 day
[27] = Inhibition of PRMT5 C449S mutant/MEP50 (unknown origin) using Histone H2A as substrate; design: species or system Homo sapiens
[28] = molecular target: T1, Protein arginine N-methyltransferase 5; test: Inhibition of PRMT5 methyltransferase activity in MTAP knockout human HCT-116 cells assessed as inhibition of PRMT5- mediated SDMA modification level incubated for 96 hrs by Western blot analysis; assay type: cell-based
[29] = molecular target: T1, Protein arginine N-methyltransferase 5; test: Inhibition of PRMT5 methyltransferase activity in human HCT-116 cells expressing wild type MTAP assessed as inhibition of PRMT5- mediated SDMA modification level incubated for 96 hrs by Western blot analysis; assay type: cell-based
[30] = test system: HCT-116; test: Antiproliferative activity against MTAP knockout human HCT-116 cells assessed as reduction in cell viability incubated for 5 days followed by replacement with fresh medium containing compound and measured after 5 days by CTG assay; assay type: functional, cell-based
[31] = test system: HCT-116; test: Antiproliferative activity against human HCT-116 cells expressing wild type MTAP assessed as reduction in cell viability incubated for 5 days followed by replacement with fresh medium containing compound and measured after 5 days by CTG assay; assay type: functional, cell-based
[32] = Intrinsic clearance in mouse hepatocytes; assay type: ADME, cell-based, Hepatocyte; details: read-out: CLH
[33] = species: Homo sapiens; test: Selectivity ratio of IC50 for inhibition of PRMT5 methyltransferase activity in human HCT-116 cells expressing wild type MTAP to IC50 for nhibition of PRMT5 methyltransferase activity in MTAP knockout human HCT-116 cells; assay type: cell-based
[34] = Selectivity ratio of IC50 for antiproliferative activity against human HCT-116 cells expressing wild type MTAP to IC50 for antiproliferative activity against MTAP knockout human HCT-116 cells; assay type: functional
[35] = Lipophilicity, logD of the compound at pH 7.4; assay type: physicochemical; details: buffer

In the case of `NCc1nnc(O)c2ccc(-c3ccccc3)cc12`, the Papp A→B at 2.5 h, 2 µM [1] is reported as 16 ×10⁻⁶ cm/s, the efflux ratio at 2.5 h, 2 µM [2] is reported as 0.8 and the Kd [3] is reported as 1.62 µM. It also gave an IC50 [4] of 14.5 µM and an IC50 [5] of 4.3 µM.
With `Cn1ncc(-c2ccc3c(=O)[nH]nc(CN)c3c2)c1-c1c(F)c(Cl)cc(OC2CC2)c1C#N` the Papp A→B at 2.5 h, 2 µM [1] was < 0.2 ×10⁻⁶ cm/s, the Papp ([1]; mdck-mdr1, 2.5 h, 2 µM, 2.5 h) was 0.3 ×10⁻⁶ cm/s and the CLint scaled [6] was < 18 mL/min/kg. The clearance [7] was 83 mL/min/kg, the Vd [8] was 6.3 L/kg and the half-life [9] was 1.5 h. For the same molecule, the Cmax [10] was 1160 ng/mL, the AUC(0-inf) [11] was 4850 ng·h/mL and the bioavailability [12] was 80%. The clearance [13] was 14 mL/min/kg, the Vd [14] was 3.4 L/kg and the half-life [15] was 4.8 h. It also gave a Cmax [16] of 1400 ng/mL, an AUC(0-inf) [17] of 7470 ng·h/mL and a bioavailability [18] of 59%. It also gave a clearance [19] of 15 mL/min/kg, a Vd [20] of 2.3 L/kg and a half-life [21] of 6.1 h. For the same molecule, the bioavailability [22] was 41%, the inhibition in vivo at 50 mg/kg [23] was 86% and the inhibition in vivo at 100 mg/kg [24] was 88%. For the same molecule, the Activity [25] was 86%, the Activity [26] was “Non-Toxic” and the IC50 [27] was 0.717 µM.
In the case of `Cn1ncc(-c2ccc3c(=O)[nH]nc(CN)c3c2)c1-c1cccc(OC2CC2)c1C#N`, the Papp A→B at 2.5 h, 2 µM [1] is reported as 0.3 ×10⁻⁶ cm/s, the efflux ratio at 2.5 h, 2 µM [2] is reported as 104 and the IC50 [28] is reported as 0.034 µM. The IC50 [29] was 6.55 µM, the IC50 [30] was 0.129 µM and the IC50 [31] was 6.82 µM. The CLint scaled [6] was < 18 mL/min/kg, the CLint scaled [32] was 237 mL/min/kg and the Ratio IC50 [33] was 193. For the same molecule, the “Ratio IC50” value [34] was 53 and the IC50 [5] was 1 µM.
Work on `Cn1cc(-c2ccc3c(=O)[nH]nc(CN)c3c2)cn1` yielded a logD [35] of -0.5 and a Papp A→B at 2.5 h, 2 µM [1] of 2.3 ×10⁻⁶ cm/s.
Work on `Cn1ncc(-c2ccc3c(=O)[nH]nc(CN)c3c2)c1-c1cc(Cl)cc(OC2CC2)c1C#N` yielded a Papp A→B at 2.5 h, 2 µM [1] of 0.2 ×10⁻⁶ cm/s, an efflux ratio at 2.5 h, 2 µM [2] of 121 and an IC50 [28] of 0.008 µM. The IC50 [29] was 0.834 µM, the IC50 [30] was 0.041 µM and the IC50 [31] was 0.99 µM. The CLint scaled [6] was < 18 mL/min/kg, the CLint scaled [32] was 336 mL/min/kg and the “Ratio IC50” value [34] was 24.
